Data set [1] in a line: Lipophilicity (LogMA), substance input parameter for PK-Sim. It is filed as physicochemical.
Data set [2] can be described thus: Solubility, substance input parameter. It counts as physicochemical. Conditions: input parameter for PK-Sim.
Data set [3] can be described thus: Plasma clearance adapted in PK-Sim simulation to experimental literature concentration-time profiles. Conditions: human, read-out: plasma clearance CL. It counts as in vivo, humans. As to the method:
Drug Dispos. 20, 417-419 (1999)) and a muscle concentration-time profile from the literature (M. Müller, B. v. Osten, R. Schmid, E. Piegler, I. Gerngross, H. Buchegger, H. G. Eichler: “Theophylline kinetics in peripheral tissues in vivo in humans”, Naunyn-Schmiedeberg's Arch. Pharmacol. 352, 438-441 (1995)) (FIG. 2).
The plasma clearance here is CL=0.40 ml/min/kg. (source: [12]) • b) Intravenous infusion of 240 mg over 10 minutes. […] (source: [13]) • c) Peroral administration of 200 mg of an immediately releasing formulation (mean and standard deviation of three bioequivalent immediate release capsules).

For data set [4] the following is noted: average value for an adult human; cited from earlier work.
For data set [5] the following is noted: cited from earlier work.

Converted amounts (≈) assume the structure as drawn. Where two headings read alike, the source gives them in different places.

The term solubility denotes the concentration that dissolves in the medium under given conditions. As for `Cn1c(=O)c2[nH]cnc2n(C)c1=O` [Theophylline], the “Lipophilicity (LogMA)” value in data set [1] is −0.2. Moreover, in data set [2], the solubility was determined as 2800 µg/mL (≈ 15.5 mM). Besides, the clearance was 0.4 mL/min/kg in data set [3] (intravenous infusion of 5.58 mg/kg over 20 minutes, adapted to experimental data (FIG. 2a)); 0.25 mL/min/kg in data set [3] (intravenous infusion of 240 mg over 10 minutes, adapted to experimental data (FIG. 2b)); 0.5 mL/min/kg in data set [3] (oral, peroral administration of 200 mg immediately releasing formulation, adapted to experimental data (FIG. 2c)). The Free plasma fraction in data set [4] is 59%. In addition, the “plasma concentration below which a sufficient anti-asthmatic effect is not generally achieved” value in data set [5] is on record as “below 5 mg/l”.

The values are drawn from patent US9095653B2, “Method for the timed dosage of medicaments” (BAYER INTELLECTUAL PROPERTY GMBH, priority 2004, dated 2015).
